# Measured values: patent publication US20070232691A1, “Use of ladostigil for the treatment of schizophrenia” (priority 2006, published 2007)
# “Also recorded” adds a separate entry of the source.
# System: male Wistar rats
# Assay: MK-801-induced persistent latent inhibition (LI), thirst motivated conditioned emotional response procedure
# Type: in vivo, rat
# Excerpt: Latent inhibition (“LI”) is the process whereby pre-exposure to a stimulus retards conditioning to this stimulus when it is subsequently paired with reinforcement, and it has been used extensively to model cognitive impairments in schizophrenia. […] Briefly, amphetamine disrupts LI in rats and normal humans, and this is paralleled by disrupted LI in acute schizophrenia patients. Amphetamine-induced LI disruption is reversed by both typical and atypical APDs.
# The rats used were male Wistar rats approximately five months old, weighing 350 g to 500 g.
# Rats were tested in Campden Instruments rodent test chambers with a retractable bottle. When the bottle was not present, the hole was covered by a metal lid. Licks were detected by a Campden Instruments drinkometer. The preexposed to-be-conditioned stimulus was a 10 sec, 80 dB, 2.8 kHz tone produced by a Sonalert module. Shock was supplied through the floor by a Campden Instruments shock generator and shock scrambler set at 0.5 mA and 1 sec duration. Equipment programming and data recording were computer controlled.
# LI was measured in a thirst motivated conditioned emotional response (“CER”) procedure by comparing the suppression of drinking to a tone previously paired with a foot shock in rats that received non-reinforced exposure to the tone prior to conditioning (preexposed) and in rats for whom the tone was novel (non-preexposed).
# Prior to the beginning of each LI experiment, rats were handled for about 2 min daily for 8 days. On day 9, a 23 h water restriction schedule was initiated and continued throughout the experiment. After 5 days of deprivation (days 9-13), rats were trained to drink in the experimental chambers for the next 5 days (days 14-18), for 20 min during the 1st day and for 15 min per day during each of the next 4 days. Water in the test apparatus was given in addition to the daily ration of 1 h given in the home cages. The LI procedure was conducted on days 19-22 and consisted of the following stages:
# With the bottle removed, the preexposed (“PE”) rats received 40 tone presentations with an inter-stimulus interval of 50 sec. The nonpreexposed (“NPE”) rats were confined to the chamber for an identical period of time without receiving the tone.
# With the bottle removed, each rat received 5 tone-shock pairings given 5 min apart. Shock immediately followed tone termination. The first tone-shock pairing was given 5 min after the start of the session. After the last pairing, rats were left in the experimental chamber for an additional 5 min. […]
# Each rat was placed in the chamber and allowed to drink from the bottle. […] The following times were recorded: Time to first lick, time to complete licks 1-50, time to complete licks 51-75 (before tone onset) and time to complete licks 76-100 (after tone onset). […]
Compound,"LI (difference between preexposed and nonpreexposed groups in log times to complete licks 76-100) (MK-801 0.05 mg/kg i.p. 30 min before conditioning, vehicle pretreatment, 40 preexposures, 5 conditioning trials)",LI / reversal of abnormally persistent LI in MK-801-treated rats (25 mg/kg ladostigil tartrate p.o. chronic + MK-801 0.05 mg/kg i.p.),LI (difference between preexposed and nonpreexposed groups in log times to complete licks 76-100) (37.5 mg/kg ladostigil tartrate p.o. chronic + MK-801 0.05 mg/kg i.p.),Effect on LI of drug on its own (ladostigil tartrate 25 mg/kg and 37.5 mg/kg p.o. chronic + saline (no MK-801))
"C[C@]12N[C@H](Cc3ccccc31)c1ccccc12 [MK-801, dizocilpine, reference compound]","significant difference between the preexposed and nonpreexposed groups, namely, LI; also recorded: persisted in showing LI",–,–,–
"R(+)-6-(N-methyl, N-ethyl-carbamoyloxy)-N′-propargyl-1-aminoindan ½ tartrate [ladostigil tartrate]",–,reversed abnormally persistent LI,"significant difference between the preexposed and nonpreexposed groups, namely, LI",had no effect
